# Results: PubChem BioAssay AID1919015 (Molecular Pharmacology Branch, DTP, NCI, 2023)
# System: OVCAR-5 complex spheroids with HUVEC/MSC, viability, % test/control
# Experiment: Anticancer human tumor OVCAR-5 cell line growth inhibition [AhR];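 further: spheroids exposed to compounds for 7 days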;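 on viability, T/C: 100% = DMSO vehicle control wells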
# Conditions: for IC50: curve of first compound; for viability, T/C: stronger effect = lower value
# Excerpt: Multicellular complex tumor spheroid response to aryl hydrocarbon receptor antagonists in combination with a variety of drugs and investigational agents in selected tumor cell lines
# The current study was undertaken to assess response to aryl hydrocarbon receptor antagonists in combination with standard-of-care drugs and investigational agents in solid tumor complex spheroid models. Complex spheroids include a stromal component modeled by human endothelial cells (HUVEC) and fibroblasts modeled by human mesenchymal stem cells (MSCs). The concentration ranges selected for each drug and investigational agent were based upon clinically achievable concentrations if the clinical Cmax of the agent was known.
# Compounds. The drugs and investigational agents: BAY 2416964 (NSC825713), GNF351 (NSC835774), CH-223191 (NSC835775), CPI-455 (NSC825282), aza-TdCyd (NSC777586), decitabine (NSC127716), belinostat (NSC758774), entinostat (NSC756642), pevonedistat (NSC761192), tazemetostat (NSC777109), talazoparib (NSC765396), olaparib (NSC753686), selinexor (NSC780203), nedisertib (M3814, NSC802822), bortezomib (NSC756655), venetoclax (NSC766270), doxorubicin (NSC123127), elimusertib (BAY189344, NSC800525), ceralasertib (AZD6738, NSC777638), TAK-243 (NSC785004), alisertib (NSC759677), etoposide (NSC141540), topotecan (NSC609699), eribulin (NSC707389), gemcitabine (NSC613327), carboplatin (NSC241240), cisplatin (NSC119875), and SN-38 (NSC673596) were obtained from the National Cancer Institute (NCI) Developmental Therapeutics Program Chemical Repository (32). The FDA-approved anticancer drug set is available from the Developmental Therapeutics Program at https://dtp.cancer.gov/organization/dscb/obtaining/available plates.htm. […] The stock solutions were prepared in dimethyl sulfoxide (DMSO, Sigma-Aldrich, St. Louis, MO, cat. D2650), except for the platinum compounds which were prepared in saline (Quality Biological, Gaithersburg, MD, cat. 114-055-101), at 800-fold the tested concentration and stored at -70 degrees C prior to their use. All drugs and investigational agents were tested over a range starting from a high concentration at or near the clinical Cmax and decreasing in half-log increments. If the clinical Cmax for an agent had not been determined, the highest concentration tested was 10 microM (Table 1).
# Cell Culture. All cells were maintained in an incubator at 37 degrees C and 5% CO2 with 95% humidity. The PDC lines were cultured according to standard operating procedures established by the NCI PDMR (https://pdmr.cancer.gov). Briefly, all PDCs were thawed and cultured in Matrigel-coated flasks prepared with a working solution of 1X Ham's F-12 nutrient mix, without supplementation (Invitrogen, Waltham, MA, cat. 11765054), 100 U/mL penicillin-streptomycin (Invitrogen, cat. 15140122), and 2.5% Matrigel (Corning Inc., Corning, NY, cat. 354248) for the first three passages. All PDCs were cultured in complete DMEM/F-12 media containing advanced DMEM/F-12 (Invitrogen, cat. 12634028), 4.9% defined fetal bovine serum, heat inactivated (HyClone Laboratories Inc., Logan, UT, cat. SH30070.03HI), 389 ng/mL hydrocortisone (Sigma-Aldrich, cat. H4001), 9.7 ng/mL human EGF recombinant protein (Invitrogen, cat. PHG0313), 23.4 microg/mL adenine (Sigma-Aldrich, cat. A2786), 97.3 U/mL penicillin-streptomycin (Invitrogen, cat. 15140122), 1.9 mM L-glutamine (Invitrogen, cat. 25030081), and 9.7 microM Y-27632 dihydrochloride (Tocris Bioscience, Bristol, United Kingdom, cat. 1254). The PDCs were cultured in complete DMEM/F12 media without 10 microM Y-27632 dihydrochloride for at least two passages prior to the screen. The established cell lines NCI-H1341 and […] were cultured in DMEM/F-12, HEPES (Invitrogen, cat. 11330032), 5% defined fetal bovine serum (HyClone Laboratories Inc., cat. SH30070.03), ITS premix universal culture supplement [insulin (5 microg/mL), transferrin (5 microg/mL), and selenious acid (5 ng/mL)] […]
smiles,measurement,setting,value
CC[C@@]1(O)C(=O)OCc2c1cc1n(c2=O)Cc2cc3c(CN(C)C)c(O)ccc3nc2-1 + CC(CO)NC(=O)c1cc(-c2ccc(Cl)cc2)nn(-c2cnn(C)c2)c1=O,IC50,second compound 0.1 µM,> 100 nM
same,IC50,second compound 0.316 µM,> 100 nM
same,IC50,second compound 1 µM,> 100 nM
same,IC50,second compound 3.16 µM,> 100 nM
same,IC50,second compound 10 µM,> 100 nM
same,"viability, T/C","second compound 0.1 µM, first compound 0.000316 µM",112%
same,"viability, T/C","second compound 0.1 µM, first compound 0.001 µM",105%
same,"viability, T/C","second compound 0.1 µM, first compound 0.00316 µM",105%
same,"viability, T/C","second compound 0.1 µM, first compound 0.01 µM",94.9%
same,"viability, T/C","second compound 0.1 µM, first compound 0.0316 µM",61.9%
same,"viability, T/C","second compound 0.1 µM, first compound 0.1 µM",50.9%
same,"viability, T/C","second compound 0.316 µM, first compound 0.000316 µM",111%
same,"viability, T/C","second compound 0.316 µM, first compound 0.001 µM",110%
same,"viability, T/C","second compound 0.316 µM, first compound 0.00316 µM",106%
same,"viability, T/C","second compound 0.316 µM, first compound 0.01 µM",99.5%
same,"viability, T/C","second compound 0.316 µM, first compound 0.0316 µM",59%
same,"viability, T/C","second compound 0.316 µM, first compound 0.1 µM",54.2%
same,"viability, T/C","second compound 1 µM, first compound 0.000316 µM",119%
same,"viability, T/C","second compound 1 µM, first compound 0.001 µM",119%
same,"viability, T/C","second compound 1 µM, first compound 0.00316 µM",112%
same,"viability, T/C","second compound 1 µM, first compound 0.01 µM",107%
same,"viability, T/C","second compound 1 µM, first compound 0.0316 µM",59%
same,"viability, T/C","second compound 1 µM, first compound 0.1 µM",56.4%
same,"viability, T/C","second compound 3.16 µM, first compound 0.000316 µM",100%
same,"viability, T/C","second compound 3.16 µM, first compound 0.001 µM",102%
same,"viability, T/C","second compound 3.16 µM, first compound 0.00316 µM",105%
same,"viability, T/C","second compound 3.16 µM, first compound 0.01 µM",93.9%
same,"viability, T/C","second compound 3.16 µM, first compound 0.0316 µM",52.9%
same,"viability, T/C","second compound 3.16 µM, first compound 0.1 µM",55.4%
same,"viability, T/C","second compound 10 µM, first compound 0.000316 µM",99.9%
same,"viability, T/C","second compound 10 µM, first compound 0.001 µM",103%
same,"viability, T/C","second compound 10 µM, first compound 0.00316 µM",100%
same,"viability, T/C","second compound 10 µM, first compound 0.01 µM",87.4%
same,"viability, T/C","second compound 10 µM, first compound 0.0316 µM",54.9%
same,"viability, T/C","second compound 10 µM, first compound 0.1 µM",62.8%
CC(C)CC(NC(=O)C(Cc1ccccc1)NC(=O)c1cnccn1)B(O)O (stereo not given) + CC(CO)NC(=O)c1cc(-c2ccc(Cl)cc2)nn(-c2cnn(C)c2)c1=O,IC50,second compound 0.1 µM,23.3 nM
same,IC50,second compound 0.316 µM,23.8 nM
same,IC50,second compound 1 µM,24.2 nM
same,IC50,second compound 3.16 µM,22.1 nM
same,IC50,second compound 10 µM,20.3 nM
same,"viability, T/C","second compound 0.1 µM, first compound 0.000949 µM",101%
same,"viability, T/C","second compound 0.1 µM, first compound 0.003 µM",111%
same,"viability, T/C","second compound 0.1 µM, first compound 0.00949 µM",90.8%
same,"viability, T/C","second compound 0.1 µM, first compound 0.03 µM",38.2%
same,"viability, T/C","second compound 0.1 µM, first compound 0.0949 µM",18.2%
same,"viability, T/C","second compound 0.1 µM, first compound 0.3 µM",11%
same,"viability, T/C","second compound 0.316 µM, first compound 0.000949 µM",104%
same,"viability, T/C","second compound 0.316 µM, first compound 0.003 µM",112%
same,"viability, T/C","second compound 0.316 µM, first compound 0.00949 µM",89.6%
same,"viability, T/C","second compound 0.316 µM, first compound 0.03 µM",39.1%
same,"viability, T/C","second compound 0.316 µM, first compound 0.0949 µM",20%
same,"viability, T/C","second compound 0.316 µM, first compound 0.3 µM",8.57%
same,"viability, T/C","second compound 1 µM, first compound 0.000949 µM",107%
same,"viability, T/C","second compound 1 µM, first compound 0.003 µM",111%
same,"viability, T/C","second compound 1 µM, first compound 0.00949 µM",95%
same,"viability, T/C","second compound 1 µM, first compound 0.03 µM",39.1%
same,"viability, T/C","second compound 1 µM, first compound 0.0949 µM",20.5%
same,"viability, T/C","second compound 1 µM, first compound 0.3 µM",11.5%
same,"viability, T/C","second compound 3.16 µM, first compound 0.000949 µM",96%
same,"viability, T/C","second compound 3.16 µM, first compound 0.003 µM",105%
same,"viability, T/C","second compound 3.16 µM, first compound 0.00949 µM",87.3%
same,"viability, T/C","second compound 3.16 µM, first compound 0.03 µM",36%
same,"viability, T/C","second compound 3.16 µM, first compound 0.0949 µM",20%
same,"viability, T/C","second compound 3.16 µM, first compound 0.3 µM",12.4%
same,"viability, T/C","second compound 10 µM, first compound 0.000949 µM",88.3%
same,"viability, T/C","second compound 10 µM, first compound 0.003 µM",97.7%
same,"viability, T/C","second compound 10 µM, first compound 0.00949 µM",79.4%
same,"viability, T/C","second compound 10 µM, first compound 0.03 µM",34.4%
same,"viability, T/C","second compound 10 µM, first compound 0.0949 µM",22.4%
same,"viability, T/C","second compound 10 µM, first compound 0.3 µM",13.7%
